How the values were obtained:
[1] = Cmax in mouse at 10 mg/kg, po; format: ADME, organism-based; parameters: dose 10 mg/kg, route oral; settings: in vivo
[2] = Plasma protein binding in rat; format: ADME, cell-free; settings: read-out: PPB (converted)
[3] = Half life in mouse at 2 mg/kg, iv; format: ADME, organism-based; settings: in vivo
[4] = Half life in dog at 1 mg/kg, iv; format: ADME, organism-based, Canis lupus familiaris; settings: in vivo
[5] = Volume of distribution at steady state in cynomolgus monkey at 2 mg/kg, iv; format: ADME, organism-based, Macaca fascicularis; settings: in vivo, read-out: Vdss
[6] = target: Sphingosine 1-phosphate receptor 3 (Homo sapiens, UniProt Q99500); assay: Agonist activity at human S1P3 receptor expressed in EDG3-Ga15-bla HEK293T cell membranes after 45 mins by [35S]-GTPgammaS binding assay; format: functional, HEK-293T
Sphingosine 1-phosphate receptor 3, sequence (Q99500 whole entry): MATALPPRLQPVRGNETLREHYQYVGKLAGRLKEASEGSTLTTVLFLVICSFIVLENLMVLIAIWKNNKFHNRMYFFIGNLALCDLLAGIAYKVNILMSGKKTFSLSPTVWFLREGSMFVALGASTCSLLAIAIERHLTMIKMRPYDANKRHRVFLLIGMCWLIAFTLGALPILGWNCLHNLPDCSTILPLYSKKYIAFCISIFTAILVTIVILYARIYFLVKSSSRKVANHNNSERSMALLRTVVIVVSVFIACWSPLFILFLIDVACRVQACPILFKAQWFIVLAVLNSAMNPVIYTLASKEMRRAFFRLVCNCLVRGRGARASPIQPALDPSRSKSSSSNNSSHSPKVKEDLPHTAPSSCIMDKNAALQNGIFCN

[7] = test system: Rattus norvegicus; assay: Reduction of blood lymphocyte level in Lewis rat at 0.3 mg/kg, po measured at 4 hrs by hematology analyzer relative to vehicle-treated control; format: functional; parameters: scale not given: the % may be the effect or the level left
[8] = Plasma concentration in Lewis rat at 0.03 mg/kg, po measured at 4 hrs; format: ADME, organism-based
[9] = Plasma protein binding in monkey; format: ADME, cell-free, Macaca mulatta; settings: rhesus monkey, read-out: PPB (converted)
[10] = species: Homo sapiens; assay: Selectivity ratio of EC50 for human S1P3 receptor to EC50 for human S1P1 receptor
[11] = test system: Rattus norvegicus; assay: Reduction of blood lymphocyte level in Lewis rat at 0.3 mg/kg, po measured at 24 hrs by hematology analyzer relative to vehicle-treated control; format: functional; parameters: scale not given: the % may be the effect or the level left

Q: With `O=C(O)C1CN(Cc2ccc(-c3noc(-c4onc(-c5ccccc5)c4C(F)(F)F)n3)cc2)C1` as the molecule, how does the Cmax [1] read?
A: 31 µM

Q: What about the fraction unbound [2] of the same molecule?
A: 0.006

Q: And the half-life [3]?
A: 9.8 h

Q: What about the half-life [4] of the same molecule?
A: 7.4 h

Q: What about the Vd [5] of the same molecule?
A: 0.6 L/kg

Q: What about the EC50 [6] of the same molecule?
A: 1.6 µM

Q: And the Activity [7]?
A: 82%

Q: And the concentration at 4 h [8]?
A: 0.02 µM

Q: And the fraction unbound [9]?
A: 0.007

Q: And the Ratio EC50 [10]?
A: 3400

Q: And the Activity [11]?
A: 73%
